Bounds are passed on as bounds.

As usually defined, the melting point is the temperature of the solid-liquid transition. In the case of `CCCCCCCCCCOc1cc(OCCCCCCCCCC)cc(C(=O)C(=O)N(CC(=O)O)CC(=O)O)c1`, the melting point was in the range of 76 to 78 °C. As for `CN(C)C(=O)Nc1scc(C(C)(C)C)c1C#N`, the melting point is 140 °C.

`Cc1oc(-c2ccccc2)nc1COc1ccc(COc2ncccc2CC(=O)O)cc1` had a melting point of 144 to 145 °C. `O=C1c2ccccc2C(=O)N1CCSCc1ccco1` gave a melting point of 59 to 61 °C.

`C[C@]1(CN2CCC(Cc3ccc(OC(F)(F)F)cc3)CC2)Cn2cc([N+](=O)[O-])nc2O1`: the melting point fell in the range of 111 to 112 °C. The figure for `CC(=O)Oc1ccc(C(=O)Nc2cc([N+](=O)[O-])ccc2C)cc1` is 207 to 208 °C; for `CCc1cccc(C)c1CNc1cc(C(=O)OC)cn2c(C)nnc12` it is 214 °C. Consider `COc1ccc(Cc2ccc(C(=O)O)nc2)cc1`, for which the melting point lay in the range of 145 to 147 °C.

For the compound `CC1(C)C(=O)Nc2cc(C(=O)Nc3ccc(N)cc3)ccc21`, the melting point was in the range of 216 to 218 °C. The result for `CCOc1c(NCc2ccc(Br)cc2CC)c(=O)c1=O` reads 217 to 224 °C; that for `C=CS(=O)(=O)c1c(Cl)c(Cl)nn1C`, 66 to 69 °C. Compound `CCOCCOc1cccc2oc(-c3ccccc3)cc(=O)c12` had a melting point of 94 to 96 °C. Turning to `CCc1cc(C(=O)c2ccccc2)c(O)cc1OCCCCC#N`, the melting point was 42 to 44 °C. The figure for `Cc1cc(OCCc2nc(-c3ccccc3)oc2C)ccc1OC(C)(C)C(=O)O` is 117 °C; for `CC(C)N1CCC(N2CCN(CCN3CCCCC3)C2=C(C#N)C#N)CC1` it is 93 to 95 °C.

As for `COC(=O)CC(NSc1ccccc1[N+](=O)[O-])C(=O)O` (stereo unspecified), the melting point was 108 to 109 °C. `CC1CC(=O)NN=C1c1ccc(N2CCN(C#N)CC2)c([N+](=O)[O-])c1` (stereo unspecified) showed a melting point of 247 to 248 °C. The result for `CCOC(=O)Cc1nc(-c2ccccc2)oc1-c1ccoc1` reads 84 to 85 °C; that for `O=C(NCc1ccccc1-c1ccccc1C(=O)NCCc1ccccn1)c1ccccc1`, 135 °C; that for `COC(=O)NC1=NC(c2ccc(I)cc2)CN1` (stereo unspecified), 229 to 230 °C. Take `CCC1(C)CC(=O)C(C(=O)Nc2ccc(Cl)c(C(F)(F)F)c2)C(=O)C1` (stereo unspecified): the melting point is 87 to 88 °C. Regarding `O=c1nc(N2CCN(c3cccc(C(F)(F)F)c3)CC2)sc2c([N+](=O)[O-])cc(C(F)(F)F)cc12`, the melting point was 201 to 203 °C.

`CCCn1c(=O)c2[nH]c(C(CC)Cc3ccccc3)nc2n(CCC)c1=O` (stereo unspecified) showed a melting point of 180 °C.

As for `COc1cccc2c1CCC21OC(=O)c2ccccc21` (stereo unspecified), the melting point was in the range of 111 to 112 °C. The result for `CC(C)C(=O)N(CCCCCC(=O)O)C(c1ccccc1)c1ccccc1` reads 106 to 107 °C. Compound `O=C(O)c1ccc(OCCNC(=O)C2Cc3ccccc3N2S(=O)(=O)c2ccc(-c3ccc(F)cc3OC(F)F)cc2)cc1` (stereo unspecified) yielded a melting point of 70 °C. Compound `Oc1ccc2c(c1)COc1c-2cc2ccc(O)cc2c1-c1cccc(C(F)(F)F)c1` yielded a melting point of 228 to 231 °C. Consider `Cc1ccccc1-c1ccc(C(=O)N2Cc3ccc(C(=O)NCc4ccc(OC(F)(F)F)cc4)n3Cc3ccccc32)cc1C`, for which the melting point was 147 to 149 °C.

Regarding `O=C(Nc1ccc(C(=O)N2CCCc3ccccc32)cc1)c1cccc(O)c1`, the melting point fell in the range of 217 to 218 °C. The compound `CC(C)(C)C(=O)OCOC(=O)c1c2n(c3cc4c(cc3c1=O)OCO4)CCS2` returned a melting point of 229 to 230 °C. For `c1ccc2cc(CN3CCN(c4nccs4)CC3)ccc2c1`, the melting point was 83 to 84 °C. The result for `CC(=O)c1cccc2ccc(CS(=O)(=O)N3CCOCC3)cc12` reads 162 °C; that for `CC(C)CC(NC(=O)c1ccc(Cl)cc1)NC(=NC#N)Nc1cccnc1` (stereo unspecified), 193 to 194 °C; that for `CCCCCc1cc(O)c2c(c1)OC(C)(C)[C@H]1CC=C(C(=O)NCC(O)CNC(=O)c3ccc4c(c3)C(=O)OC43c4ccc(O)cc4Oc4cc(O)ccc43)C[C@H]21` (stereo partly specified), over 330 °C. The result for `CC(C)(C)OC(=O)[C@H](Cc1ccc(O)cc1)NC(=O)C12CC3CC(C(=O)N1Cc1ccccc1)C2C3` (stereo partly specified) reads 298 to 300 °C. Regarding `CC(C)[C@H](C[C@H](O)[C@H](C)NC(=O)OC(C)(C)C)C(=O)NN`, the melting point is 55 to 62 °C. The figure for `COC(=O)[C@@H]1c2ccccc2C[C@@H]1O` is 72.5 to 73.5 °C; for `O=C(Nc1cnccn1)Nc1cccc2c1C1CCCCN1C2=O` (stereo unspecified) it is 215 °C; for `Nc1cc(C(=O)O)c(N)c2c1C(=O)c1ccccc1C2=O` it is 352 °C.

The compound `CC(=O)NC[C@H]1CN(c2cc(F)c(N3CCC(n4nnnc4-c4ccncc4)CC3)c(F)c2)C(=O)O1` had a melting point of 202 to 204 °C. As to `COC(=O)Cc1c(C)n(-c2nc(OC)nc3ccccc23)c2ccc(OC)cc12`, the melting point was in the range of 152 to 154 °C. `CCOC(=O)C(Cl)=NO`: the melting point lay within 75 to 80 °C. The result for `CC(=O)N(c1cc([N+](=O)[O-])c(F)cc1Cl)S(=O)(=O)CCl` reads 183 to 187 °C; that for `CC(=O)N1CCN(c2ccc(Nc3nccc(-c4sc(-c5cccs5)nc4C)n3)cc2)CC1`, 134 to 136 °C; that for `O=S(=O)(Nc1cccc(Cl)c1Cl)c1cc(S(=O)(=O)Nc2cccc(Cl)c2Cl)c2cc(O)ccc2c1`, 117 to 119 °C. The result for `COc1cc(OC)cc(S(=O)(=O)c2ccc([N+](=O)[O-])cc2)c1` reads 150 to 152 °C; that for `CCCc1c2c(cc3c(=O)cc(C(=O)OCC)oc13)C(O)C(C(=O)OCC)(C(=O)OCC)O2` (stereo unspecified), 131 to 133 °C. Regarding `O=C(Cn1ccnc1[N+](=O)[O-])NCCO`, the melting point was in the range of 164 to 165 °C. The compound `NS(=O)(=O)c1ccc(-n2nc(CCCNC(=O)Nc3cccc(C(F)(F)F)c3)cc2-c2ccccc2)cc1` returned a melting point of 176 °C. Turning to `CCc1nnc2c(NC3CCCCC3)nc3ccccc3n12`, the melting point lay in the range of 217 to 220 °C. As to `OCCOc1ccc(Oc2ccc(F)cc2)cc1`, the melting point is 74 to 76 °C. The result for `COc1ccc(C2=NNC(=O)C(C)C2)cc1` (stereo unspecified) reads 203 to 206 °C; that for `CN1C(=O)C(=O)N(CCCCCBr)C1=S`, 48 to 50 °C; that for `CC#CC1CCC(C2CCC(c3ccc(CCC)cc3)CC2)CC1` (stereo unspecified), 70 °C. The compound `CCCC1=NN(c2ccc(S(=O)(=O)O)cc2)C(=O)C1=CNc1ccccc1CC` gave a melting point of 205 °C. As to `Oc1cccc(-c2cc(-c3ccc(-c4ccccc4)cc3)cc(-c3ccc4ccccc4c3)n2)c1`, the melting point was 174 to 175 °C. The figure for `CCCOCCOc1ccc(-c2ccc3c(c2)C=C(C(=O)O)CCCN3CCC)cc1` is 202 to 204 °C; for `CC(C)(C)c1cc(N2CCCCC2=O)cc(C(C)(C)C)c1O` it is 212 to 214 °C; for `O=C(NO)c1ccc(CNC(=O)c2[nH]c(-c3ccoc3)cc2-c2ccc(F)cc2)cc1` it is 162 to 164 °C.

On to `Cc1c(Cc2cccc(C(F)(F)F)c2)oc2c(-c3cccc(C(=O)NCCS(C)=O)c3)cccc12` (stereo unspecified), for which the melting point lay in the range of 146 to 147 °C. The figure for `CC(C)c1c(Sc2cccc(Cl)c2)nc(COC(N)=O)n1C` is 145 to 146 °C.

The values above are taken from a melting point compilation (Tetko et al.; mined from patent text by program, amines drawn as free bases though some values may be those of a salt).
